Experimental data taken from PMC9706574, “A Versatile and Sustainable Multicomponent Platform for the Synthesis of Protein Degraders: Proof-of-Concept Application to BRD4-Degrading PROTACs” (Journal of Medicinal Chemistry, 2022).
Converted amounts (≈) assume the structure as drawn.

Columns and labels:
[1] = Metabolic stability in mouse liver microsomes (MLM); type: in vitro ADME
Protocol: To this aim, we evaluated the metabolic stability of the five selected PROTACs in mouse liver microsomes (MLM).
Mouse liver microsomes (MLM) (pooled male mouse CD-1, protein concentration: 20 mg/mL) were purchased from Corning B.V. Life Sciences (Amsterdam, The Netherlands). The standard incubation mixture (250 μL final volume) was carried out in a 50 mM Tris (tris[hydroxymethyl]aminomethane) buffer (pH 7.4) containing 150 mM KCl, 1.5 mM, 3.3 mM MgCl2, 1.3 mM NADPNa2, 3.3 mM glucose 6-phosphate, 0.4 units/mL glucose 6-phosphate dehydrogenase, acetonitrile as cosolvent (1% of total volume), and the substrate (50 μM). After pre-equilibration of the mixture, an appropriate volume of MLM suspension was added to give a final protein concentration of 1.0 mg/mL. The mixture was shaken for 60 min at 37 °C. Control incubations were carried out without the presence of an NADPH-regenerating system or microsomes. Each incubation was stopped by the addition of 250 μL of ice-cold acetonitrile, vortexed, and centrifuged at 13 000 rpm for 5 min. The supernatants were analyzed by LC-UV.

[2] = Thermodynamic aqueous solubility; type: physicochemical
Protocol: Saturated solutions were prepared by dissolving the tested compounds in 0.1 M phosphate-buffered saline (pH = 7.4) or 0.01 N HCl solutions and sonicated for 30 s. After equilibration on an orbital shaker at 25 °C for 2 h, the solutions were centrifuged at 13 000 rpm for 5 min and filtered through a 0.2 μm regenerated cellulose (RC) syringe filter. A 400 μL aliquot of each filtrate was diluted with 100 μL of acetonitrile and analyzed by LC-UV. When the measured peak area was out of the calibration range (5–100 μM), the sample was further diluted in water–acetonitrile 1:1 mixture.

[3] = parameters: method as in PMID 33026811; settings: physiological pH, in 3 h; cited from earlier work

melting point | metabolic stability in MLM (in words) [1] | solubility thermodynamic at 2 h ([2]; 0.01 N HCl solution, HCl 0.01 N, pH 2.0, 25 °C) [µM] | solubility at physiological pH (in words) ([2]; pH 7.4) | solubility thermodynamic at 2 h ([2]; phosphate-buffered saline, PBS 0.1 M, pH 7.4, 25 °C) [µM] | SMILES | hydrolytic degradation [3]
105.2 to 107 °C (dec.) | highly stable in MLM | 18 (≈ 14.2 µg/mL) | the least soluble | 8 (≈ 6.29 µg/mL) | Cc1sc2c(c1C)C(c1ccc(Cl)cc1)=N[C@@H](CC(=O)OCC(=O)NCCCCOc1cccc3c1C(=O)N(C1CCC(=O)NC1=O)C3=O)c1nnc(C)n1-2 (stereo partly drawn) [Compound 37, 2-((4-((2-(2,6-Dioxopiperidin-3-yl)-1,3-dioxoisoindolin-4-yl)oxy)butyl)amino)-2-oxoethyl2-((S)-4-(4-chlorophenyl)-2,3,9-trimethyl-6H-thieno[3,2-f][1,2,4]triazolo[4,3-a][1,4]diazepin-6-yl)acetate] | 
 |  |  |  |  | O=C1CCC(N2C(=O)c3ccccc3C2=O)C(=O)N1 (stereo not drawn) [thalidomide] | about 30%
